According to patent US20040053872A1, “New sequences” (priority 2000, published 2004):
Like-named read-outs stand apart in the source and are kept apart here. Strand notation (5' to 3'): a small letter for the sugar, then the base; units joined by * are phosphorothioate-linked, units joined directly phosphodiester-linked; [ ] holds rarer units or linkages, { } end groups; capitals alone tell only the bases. r = 2'-OH (RNA)

Tests used:
[1] = molecular target: T1, recombinant HIV-1 RT, ref RT (HIV type B, clone BH 10) (Human immunodeficiency virus type 1 group M subtype B, UniProt P03366); assay: RT assay: inhibition of RNA dependent DNA polymerisation (modified Lenti RT assay); format: biochemical; set-up: performed by recombinant HIV-1 RT:s with defined; conditions: enzyme/inhibitor preincubated 30 minutes at 33° C., BrdUTP 0.35 μM, odT22 0.03 ng per well, 3 hours, read-out: IC50 of indicated inhibitor in RT assay
Method: The flourimetric RT assay (Cavidi® Lenti RT activity kit), available from Cavidi Tech, Uppsala, Sweden, was used for the determination of RT activity. In short, poly(rA) covalently bound to the wells of a 96 well microtiter plate serves as template for the incorporation of 5-bromodeoxyuridine 5′-triphosphate (BrdUTP) during the reverse transcription step at 33° C. The amount of bromodeoxyuridine monophosphate (BrdUMP) incorporated into DNA is detected with an alkaline phosphatase (Ap) conjugated, anti-BrdU monoclonal antibody. An Ap substrate, 4-methylumbelliferyl phosphate, is finally used for fluorimetric product detection.
(i) Protocol for determination of inhibition of RNA dependent DNA polymerisation: The inhibition studies were performed in a modified Lenti RT assay. The inhibitors were serially diluted in five steps, whereupon enzyme dilution was added and the enzyme/inhibitor mixtures were incubated for 30 minutes at 33° C. The enzyme reaction was initiated by addition of 100 μl aliquots of the enzyme/inhibitor mixture to each well of a microtiter plate containing 100 μl RT reaction mixture per well. The polymerase reaction was allowed to proceed for 3 hours at 33° C., whereupon the reaction was terminated by a wash of the plate. […] The amount of RT used was standardised to an activity corresponding to 90-130 pg (7-10×10^−16 mol) reference HIV-1 RT per well […]

[2] = molecular target: T1, recombinant HIV-1 RT, ref RT (HIV type B, clone BH 10); format: biochemical; set-up: performed by recombinant HIV-1 RT:s with defined; conditions: second strand DNA synthesis, preincubation 30 minutes at 33° C., 3 hours, read-out: IC50 of indicated inhibitor in DNAp assay
From the text: The flourimetric DNA-polymerase assay used is available from Cavidi Tech AB, Uppsala, Sweden. It is based on a short DNA primer analogous to a part of the tRNA^Lys3 sequence. The template is a single stranded deoxynucleotide template with part of the sequence complementary to the primer. The enzyme reaction is dependent on all four deoxynucleotide bases. The thymidine triphosphate is, however, replaced by BrdUTP. The amount of BrdUMP incorporated into DNA during the polymerase reaction is detected with an alkaline phosphatase (Ap) conjugated anti-BrdU monoclonal antibody. An Ap substrate, 4-methylumbelliferyl phosphate, is finally used for fluorimetric product detection.
(ii) Protocol for determination of inhibition of second strand synthesis on a variable DNA template: The inhibition studies were performed in a modified DNA polymerase assay. The inhibitors were serially diluted in five steps, enzyme dilution was added and the enzyme/inhibitor mixtures were incubated for 30 minutes at 33° C. The enzyme reaction was initiated by addition of 75 μl aliquots of the enzyme/inhibitor mixture to each well of a microtiter plate containing 75 μl DNA polymerase reaction mixture per well. The polymerase reaction was allowed to proceed for 3 hours at 33° C. whereupon the reaction was terminated by a wash of the plate. […]

[3] = molecular target: T2, recombinant HIV-1 RT K103N/E478Q (Human immunodeficiency virus type 1 group M subtype B, UniProt P03366, E1077Q/K702N); conditions: binding 90 min at 33° C.
T2 construct: performed by recombinant HIV-1 RT:s with defined
Method: (§1) (iii) Protocol for RT binding inhibition (BIC) assay: The study was performed in a modified DNA polymerase assay. The inhibitors were serially diluted in five steps, enzyme dilution was added and the enzyme/inhibitor mixtures were incubated for 30 minutes at 33° C. Aliquots of the enzyme/inhibitor mixture were transferred to each well of a microtiter plate containing either immobilised primer, or primer/template. The enzyme was allowed to bind to the immobilised polymer for 90 min at 33° C. The amount of RT used was standardised to an activity corresponding to 40-60 pg (3.3-5.0×10^−16 mol) reference HIV-1 RT per well. The plates were then washed to remove unbound enzyme whereupon the amount of bound enzyme was determined by addition of the appropriate reaction solution for polymerisation (i e a reaction solution devoid of primer for studies of primer binding and a reaction solution devoid of both primer and template for studies of binding to primed template). The polymerase reaction was allowed to proceed for 3 hours at 33° C., whereupon the reaction was terminated by a wash of the plate.
(§2) The capacity of the indicated substances to inhibit the binding to primer or to primed DNA template of a panel of recombinant HIV 1 subtype B RTs was studied according to “Protocol for RT binding inhibition (BIC) assay” (protocol (iii) above).

[4] = molecular target: T1, recombinant HIV-1 RT, ref RT (HIV type B, clone BH 10); conditions: read-out: Inhibition of binding to primer (BIC50), immobilised primer, binding 90 min at 33° C.
Method: as §1, §2

Substance | IC50 [1] [nM] | IC50 [2] [nM] | IC50 ([3]; immobilised primer, read-out: Inhibition of binding to primer (BIC50)) [nM] | IC50 ([3]; immobilised primer/template, read-out: Inhibition of binding to template/primer (BIC50)) [nM] | IC50 [4] [nM]
substance 199: 35-mer RNA molecule having the sequence set out in SEQ ID NO:5; similar to SEQ ID NO:4 with some naturally occurring nucleotide derivatives (GCUCAGNCGGNAGAGCANCAGACUUUUAANCUGAN; RNA, backbone, methylation of C and the base at N not given here; naturally occurring modified nucleosides at n positions) | 6.6 | 40 |  |  | 
substance 198: 15-mer RNA phosphorothioate with the base sequence of tRNALys3 anticodon stem and loop, SEQ ID NO:7 (rC*rA*rG*rA*rC*rU*rU*rU*rU*rA*rA*rU*rC*rU*rG) [reference compound] | 470 | 550 | 400 | 1000 | 100
